From patent publication US12522572B2, “Isoxazole hydroxamic acids as histone deacetylase 6 inhibitors” (The George Washington University, A Congressionally …, priority 2017, dated 2026)
Entries after “also recorded” stand apart in the source; their conditions may differ.

Key:
Human HDAC1 = molecular target: T1, Human HDAC1 (Homo sapiens, UniProt Q13547); assay: HDAC isoform inhibition, HDAC1; assay type: biochemical; conditions: duplicate 10-dose IC50 mode, 3-fold serial dilution starting at 30 μM
T1 construct: Full length with C-terminal GST tag, MW=79.9 kDa; GST (C); host or cells: Sf9 insect cells, baculovirus expression system
T1 sequence (Q13547 whole entry, canonical isoform): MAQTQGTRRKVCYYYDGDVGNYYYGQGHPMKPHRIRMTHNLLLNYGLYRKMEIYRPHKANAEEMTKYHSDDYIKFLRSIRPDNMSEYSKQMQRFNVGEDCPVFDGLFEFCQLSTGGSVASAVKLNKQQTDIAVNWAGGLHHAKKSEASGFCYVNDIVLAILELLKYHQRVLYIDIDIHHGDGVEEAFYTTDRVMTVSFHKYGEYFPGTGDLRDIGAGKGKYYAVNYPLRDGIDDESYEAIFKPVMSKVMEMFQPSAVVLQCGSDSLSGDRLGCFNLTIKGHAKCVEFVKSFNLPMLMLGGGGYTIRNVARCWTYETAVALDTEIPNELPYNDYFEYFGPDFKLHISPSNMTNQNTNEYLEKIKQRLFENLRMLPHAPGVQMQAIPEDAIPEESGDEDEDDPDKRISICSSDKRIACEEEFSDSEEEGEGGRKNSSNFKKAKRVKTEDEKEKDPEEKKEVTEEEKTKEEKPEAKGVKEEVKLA

Human HDAC6 = molecular target: T2, Human HDAC6 (Homo sapiens, UniProt Q9UBN7); assay: HDAC isoform inhibition, HDAC6; assay type: biochemical; conditions: for IC50: duplicate 10-dose IC50 mode, 3-fold serial dilution starting at 30 μM; for Selectivity HDAC1/HDAC6: ratio of HDAC1 IC50 to HDAC6 IC50
T2 construct: Full length with N-terminal GST tag, MW=159 kDa; GST (N); host or cells: Sf9 insect cells, baculovirus expression system
T2 sequence (Q9UBN7 1-1215): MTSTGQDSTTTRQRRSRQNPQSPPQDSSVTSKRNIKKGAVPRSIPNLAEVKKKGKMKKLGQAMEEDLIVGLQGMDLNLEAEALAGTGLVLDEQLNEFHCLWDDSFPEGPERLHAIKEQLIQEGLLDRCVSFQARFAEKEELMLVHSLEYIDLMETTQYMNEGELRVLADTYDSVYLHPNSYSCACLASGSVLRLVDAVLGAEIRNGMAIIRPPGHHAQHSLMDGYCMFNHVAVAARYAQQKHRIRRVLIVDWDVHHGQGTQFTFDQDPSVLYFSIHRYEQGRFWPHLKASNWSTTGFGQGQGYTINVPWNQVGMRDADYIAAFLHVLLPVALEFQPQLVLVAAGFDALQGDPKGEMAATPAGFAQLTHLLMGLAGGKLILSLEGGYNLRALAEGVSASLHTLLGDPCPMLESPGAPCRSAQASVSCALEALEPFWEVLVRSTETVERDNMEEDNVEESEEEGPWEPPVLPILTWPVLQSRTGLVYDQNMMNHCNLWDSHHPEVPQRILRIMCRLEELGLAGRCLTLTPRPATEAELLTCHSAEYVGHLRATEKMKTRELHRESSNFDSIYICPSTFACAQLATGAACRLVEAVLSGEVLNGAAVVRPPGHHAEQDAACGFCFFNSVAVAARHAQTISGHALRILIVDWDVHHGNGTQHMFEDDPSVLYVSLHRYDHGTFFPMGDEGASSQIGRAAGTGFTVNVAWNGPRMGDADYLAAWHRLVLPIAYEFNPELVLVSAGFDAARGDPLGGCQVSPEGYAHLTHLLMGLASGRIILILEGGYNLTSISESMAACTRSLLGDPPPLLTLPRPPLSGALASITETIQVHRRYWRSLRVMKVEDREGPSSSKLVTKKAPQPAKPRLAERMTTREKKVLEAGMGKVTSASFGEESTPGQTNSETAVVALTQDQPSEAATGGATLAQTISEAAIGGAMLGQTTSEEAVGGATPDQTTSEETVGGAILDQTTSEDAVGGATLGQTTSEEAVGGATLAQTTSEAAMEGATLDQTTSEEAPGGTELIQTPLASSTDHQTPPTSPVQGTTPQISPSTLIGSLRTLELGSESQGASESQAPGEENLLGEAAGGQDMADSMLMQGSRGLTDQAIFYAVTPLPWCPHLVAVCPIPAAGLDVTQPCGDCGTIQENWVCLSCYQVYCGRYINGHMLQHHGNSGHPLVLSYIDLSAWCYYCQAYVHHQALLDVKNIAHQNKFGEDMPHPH

[1] = system: Human melanoma WM164 cells; assay: Immunoblot of acetylated tubulin in WM164 cells; assay type: cell-based; conditions: different concentrations, presence or absence of IL-6 (30 ng/uL) or IFNg (100 ng/uL)
Experimental: Human Melanoma cells WM164 were cultured in RPMI 1640 media, supplemented with 10% FBS, penicillin/streptomycin (50 U/ml), L-glutamine (2 mM), and 2-mercaptoethanol (50 μM) (complete media), and grown under humidified conditions at 37° C. and 5% CO2.
The cells were lysed in a buffer containing 280 mM NaCl, 50 mM Tris HCL PH 8.0, 0.5% Igepal, 5 mM MgCl2, 10% glycerol and 1× protease inhibitor (Roche), phosphatase inhibitor (Santa Cruz Biotechnology). Lysates were sonicated on ice for […] (2 cycles of 30 s on, 30 s rest) and then mixed with 6× gel loading buffer and boiled for 5 minutes. Samples were then resolved on 10% or 4-15% gradient gels and transferred to nitrocellulose membranes. Membranes were blocked with 5% milk-PBS-Tween. Bands were detected by scanning blots with an LI-COR Odyssey imaging system using both 700 and 800 channels. The antibodies used for immunobloting included Anti-acetyl-α-Tubulin (SC-23950) and anti-α-Tubulin (SC-32293), which were purchased from Santa Cruz Biotechnology. Anti-HDAC6 (C0226) was from Assay Biotech. Anti-GAPDH (68795) was from Sigma Aldrich. Anti STAT3 (12640), anti P-STAT3 Y-705 (9138), anti P-STAT3 S727 (9136), and anti Acetil-STAT3 (2523) were purchased from Cell signaling. Anti PD-L1 (PA5-28115) was obtained from Thermo Scientific. Anti-FLAG (F1804) antibody was from Sigma. […]

[2] = system: Human melanoma WM164 cells; assay: HDAC assay in WM164 cells; assay type: cell-based; conditions: different concentrations
[3] = system: Human melanoma WM164 cells; assay: Cytotoxicity assay (CellTox) in WM164 cells; assay type: cell-based; conditions: different concentrations, 24 hour reading
Experimental: All cells were cultured in RPMI 1640 media, supplemented with 10% FBS, penicillin/streptomycin (50 U/ml), L-glutamine (2 mM), and 2-mercaptoethanol ([…]) (complete media), and grown under humidified conditions at 37° C. and 5% CO2.
Cells were plated at a desired density in a black, flat clear bottom, 96 well plate. After 24 hours of cell growth, the media was removed from all the wells, fresh media was added with the fluorescent CellTox dye, using the manufactured protocol. The plate was then treated with the compounds of interest at the various concentrations of the compound. Immediately after plating, a baseline reading was performed. The plate was then incubated for 24 hours before the next reading was done, which was considered the 24 hour reading. Assay measurements were collected using the SoftMax Pro Microplate Data Acquisition and Analysis Software paired with Molecular Devices spectrophotometer (SpectraMax).
Human melanoma WM164 cells were treated with different concentrations SS-2-08 and SS-01-100 to evaluate the HDAC activity associated with the potential cytotoxic effect of these compounds.

[4] = Liver microsomal stability, mouse; assay type: in vitro ADME; conditions: mouse liver microsomes
[5] = Liver microsomal stability, human; assay type: in vitro ADME; conditions: human liver microsomes
[6] = Hepatocyte stability, mouse; assay type: in vitro ADME; conditions: mouse hepatocytes
[7] = Hepatocyte stability, human; assay type: in vitro ADME; conditions: human hepatocytes
[8] = system: Salmonella typhimurium (TA98 and TA1537); assay: Mini-Ames test; assay type: cell-based; conditions: two Salmonella typhimurium strains, presence and absence of S9 mix
Experimental: […]. SS-2-08 was incubated with two strains of Salmonella typhimurium (TA98 and TA1537) in the presence and absence of mammalian microsomal enzymes (S9 mix) to investigate the possible mutagenicity of this compound. […].

[9] = system: Murine melanoma SM1 cells; assay: ApoTox-Glo Triplex Assay, apoptosis; assay type: cell-based
Experimental: Murine melanoma SM1 cells were cultured in RPMI 1640 medium supplemented with: 1% minimum essential medium (MEM) non-essential amino acids solution, 10% fetal bovine serum (FBS), and 1% penicillin-streptomycin (P/S) then grown under humidified conditions at 37° C. and 5% CO2.
The assay controls—Digitonin (D141-100MG), Ionomycin (I064-1MG) and Mitomycin C (M4287-2MG)—were purchased from Sigma. Through a control plate evaluation, the optimal control concentration was selected for HDACi on the compound plates—30 μg/mL Digitonin, 100 μM Ionomycin, and 25 μg/mL Mitomycin.
Murine melanoma cells were treated with individual HDACi along with the protocol recommended assay controls. Following the manufacturers protocol, Viability/Cytotoxity reagents were added—fluorescence was measured at […] 400Ex/505Em (viability) and 485Ex/520Em (cytotoxicity). Next, the Caspase 3/7 reagent was added, after incubation, luminescence was measured at Lm578 (apoptosis). Assay measurements were collected using the SpectraMax. During analysis, LBH is used as the control compound.

SM1 melanoma tumor = assay: Syngeneic SM1 murine melanoma tumor model; assay type: in vivo, C57/BL/6 mice; conditions: 25 mg/kg and 50 mg/kg intraperitoneally, three times a week
Experimental: Animal experiments involving mice were performed in accordance to all approved protocols by the IACUC at The George Washington University. C57/BL/6 mice were obtained from Charles River (Massachusetts-Wilmington, USA). Mice for the in vivo tumor studies were subcutaneously injected in the right flank with 1.0×10^6 SM1 melanoma cells suspended in 100 μL 1× Phosphate Buffer Saline (PBS). After subcutaneous injection, tumor growth was monitored until they became palpable. Once palpable (5-8 mm in diameter), the animals were then treated with a vehicle control, or SS-2-08 at a dose of 25 mg/kg and 50 mg/kg, intraperitoneally, three times a week. Tumor growth was recorded twice a week. When the tumors reached 4000 mm^3, mice were euthanized. The values collected are represented as the mean tumor volume (mm^3) and standard deviation for treatment groups.

hERG = hERG (Homo sapiens, UniProt Q12809); assay: cell-based
Sequence of hERG (Q12809 whole entry): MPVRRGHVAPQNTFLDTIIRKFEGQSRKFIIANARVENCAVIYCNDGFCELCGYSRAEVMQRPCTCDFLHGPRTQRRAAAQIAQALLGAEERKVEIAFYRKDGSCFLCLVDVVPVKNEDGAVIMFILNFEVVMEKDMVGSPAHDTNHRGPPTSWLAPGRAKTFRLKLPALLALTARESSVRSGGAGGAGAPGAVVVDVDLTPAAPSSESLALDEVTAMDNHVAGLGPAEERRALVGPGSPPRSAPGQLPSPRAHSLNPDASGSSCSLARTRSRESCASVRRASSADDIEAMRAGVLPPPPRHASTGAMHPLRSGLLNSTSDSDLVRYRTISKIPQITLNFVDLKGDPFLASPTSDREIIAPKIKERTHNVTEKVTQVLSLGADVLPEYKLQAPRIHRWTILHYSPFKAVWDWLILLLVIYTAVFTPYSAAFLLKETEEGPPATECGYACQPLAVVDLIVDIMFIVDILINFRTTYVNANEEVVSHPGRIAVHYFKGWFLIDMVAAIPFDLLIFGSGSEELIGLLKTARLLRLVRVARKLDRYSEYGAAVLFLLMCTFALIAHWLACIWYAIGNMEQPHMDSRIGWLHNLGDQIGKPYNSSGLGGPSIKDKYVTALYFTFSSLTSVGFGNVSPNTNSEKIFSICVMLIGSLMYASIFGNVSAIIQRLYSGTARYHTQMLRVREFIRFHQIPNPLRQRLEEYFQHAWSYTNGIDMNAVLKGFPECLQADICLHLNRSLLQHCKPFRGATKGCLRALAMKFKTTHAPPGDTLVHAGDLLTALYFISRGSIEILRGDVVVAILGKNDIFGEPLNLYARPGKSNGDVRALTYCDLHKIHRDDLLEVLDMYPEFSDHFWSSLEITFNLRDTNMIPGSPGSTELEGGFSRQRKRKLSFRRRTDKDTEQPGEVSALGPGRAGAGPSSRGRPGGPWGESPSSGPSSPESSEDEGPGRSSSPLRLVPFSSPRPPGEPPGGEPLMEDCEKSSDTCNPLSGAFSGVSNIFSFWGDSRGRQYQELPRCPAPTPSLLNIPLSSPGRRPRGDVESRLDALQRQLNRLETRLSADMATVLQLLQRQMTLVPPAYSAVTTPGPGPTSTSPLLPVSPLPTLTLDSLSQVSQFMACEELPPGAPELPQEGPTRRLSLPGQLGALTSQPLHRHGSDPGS

| IC50 (Human HDAC6) | IC50 (Human HDAC1) | Selectivity HDAC1/HDAC6 (Human HDAC6) | SMILES | further results |
| --- | --- | --- | --- | --- |
| 1340 nM | – | – | O=C(NO)c1cc(CCCCN2c3ccc(Cl)cc3CCc3cc(Cl)ccc32)on1 [SS-1-54, 5-(4-(2,8-dichloro-10,11-dihydro-5H-dibenzo[bf]azepin-5-yl)butyl)-N-hydroxyisoxazole-3-carboxamide] | IC50 (nM) HDAC1 (Human HDAC1): No inhibition |
| 693 nM | 11200 nM | 16 | O=C(NO)c1cc(CCCCn2ccc3cc(Cl)c(Cl)cc32)on1 [SS-3-94, 5-(4-(5,6-dichloro-1H-indol-1-yl)butyl)-N-hydroxyisoxazole-3-carboxamide] | – |
| 1990 nM | 44000 nM | 22 | O=C(NO)c1cc(CCCCN2CCCc3cc(Cl)ccc32)on1 [SS-4-01, 5-(4-(6-chloro-3,4-dihydroquinolin-1(2H)-yl)butyl)-N-hydroxyisoxazole-3-carboxamide] | – |
| 4360 nM | 174000 nM | 40 | CC1(C)CCN(CCCCc2cc(C(=O)NO)no2)c2ccc(Cl)cc21 [SS-4-02, 5-(4-(6-chloro-4,4-dimethyl-3,4-dihydroquinolin-1(2H)-yl)butyl)-N-hydroxyisoxazole-3-carboxamide] | – |

Further lines, the compound ahead of its results:

| SMILES | IC50 (Human HDAC6) | IC50 (Human HDAC1) | Selectivity HDAC1/HDAC6 (Human HDAC6) | further results |
| --- | --- | --- | --- | --- |
| O=C(NCCc1cc(C(=O)NO)no1)c1ccccc1 [SS-1-100, 5-(2-Benzamidoethyl)-N-hydroxyisoxazole-3-carboxamide] | 194 nM | – | – | IC50 (nM) HDAC1 (Human HDAC1): No inhibition; levels of acetylated tubulin [1]: increased; HDAC activity [2]: reduced the HDAC activity in a dose-dependent manner; cytotoxicity [3]: minimal cytotoxicity effects |
| O=C(NCCc1cc(C(=O)NO)no1)c1ccc(Cl)c(Cl)c1 [SS-2-08, 5-(2-(3,4-dichlorobenzamido)ethyl)-N-hydroxyisoxazole-3-carboxamide] | – | – | – | Liver microsomal stability (t1/2 min, with NADPH) Mouse [4]: 37 min; Liver microsomal stability (t1/2 min, with NADPH) Human [5]: 135 min; Hepatocyte stability (t1/2 min) Mouse [6]: 22 min; Hepatocyte stability (t1/2 min) Human [7]: 108 min; Mini-Ames test [8]: No significant number of revertant colonies; also recorded: Negative; levels of acetylated tubulin [1]: increased; HDAC activity [2]: reduced the HDAC activity in a dose-dependent manner; cytotoxicity [3]: minimal cytotoxicity effects; apoptosis (Caspase 3/7) [9]: does not induce apoptosis; tumor growth (SM1 melanoma tumor): reduces in vivo tumor growth; IC50 (hERG): > 30 µM |
| O=C(NCCc1cc(C(=O)NO)no1)c1ccc2ccccc2c1 [SS-3-66, 5-(2-(2-naphthamido)ethyl)-N-hydroxyisoxazole-3-carboxamide] | 10.3 nM | 3030 nM | 294 | – |
| O=C(NCCc1cc(C(=O)NO)no1)c1cccc(-c2ccccc2)c1 [SS-3-67, 5-(2-([1,1′-biphenyl]-3-ylcarboxamido)ethyl)-N-hydroxyisoxazole-3-carboxamide] | 24.1 nM | 2040 nM | 85 | – |
| O=C(NO)c1cc(CCCOc2ccc(Cl)c(Cl)c2)on1 [SS-4-10, 5-(3-(3,4-dichlorophenoxy)propyl)-N-hydroxyisoxazole-3-carboxamide] | 195 nM | – | – | – |
